Results reported in patent publication US12084479B2, “Modified antimicrobial peptide derived from an arginine-rich domain” (priority 2016, dated 2024).
Values after ≈ are worked out from the molar mass of the structure shown. Where two headings read alike, the source gives them in different places. Where a SMILES comes first, the peptide text is derived from it. Where no end group is shown, it is not given here. [ ]: non-standard residue; d: D form.

Tests used:
K. pneumoniae = format: cell-based, Klebsiella pneumoniae
Method: (§1) The antimicrobial activities of HBcARD peptides were tested using a number of bacterial strains, including Pseudomonas aeruginosa Migula strains (ATCC 27853, ampicillin-resistant and ATCC 9027, ampicillin-resistant), Klebsiella pneumoniae strain (ATCC 13884), Shigella dysenteriae Xen27 (Caliper Co.), Escherichia coli strain (ATCC 25922), Staphylococcus aureus subsp. strains (ATCC 25923, methicillin-resistantATCC 29213, methicillin-resistant and ATCC 19636, methicillin-resistant) and Acinetobacter baumannii strains (ATCC 17978, ATCC 17978 CR, ATCC19606, ATCC 19606 CR, TCGH 45530 and TCGH 46709). Clinical isolates TCGH 45530 and TCGH 46709 were obtained from Tzu-Chi Buddhist General Hospital (TCGH) in Taiwan, and were identified using the Vitek system (Biomerieux Vitek, Inc., Hazelwood, MO, USA). See Chang et al. (2012), J Microbiol Immunol Infect 45:37-42 doi:10.1016/j.jmii.2011.09.019.
(§2) L- and D-HBcARD peptides were purchased from Yao-Hong Biotechnology Inc. (Taipei, Taiwan). Antimicrobial activity was determined as described. See, Chen et al., 2013. Briefly, bacteria were grown in MH broth (Difco) to mid-logarithmic phase at 37° C., and were diluted to 10^6 CFU (colony formation unit)/ml in phosphate buffer (10 mM sodium phosphate and 50 mM sodium chloride, pH 7.2). Peptides were serially diluted in the same buffer. Fifty microliters (μl) of bacteria were mixed with fifty μl of peptides at varying concentrations, followed by incubation at 37° C. for 3 hours without shaking. At the end of incubation, bacteria were placed on Mueller-Hinton broth agar plates, and allowed to grow at 37° C. overnight for measurement of minimal bactericidal concentration (MBC).
(§3) All peptides were tested in triplicate.

E. coli = format: cell-based, Escherichia coli
Method: as §1, §2, §3

S. dysenteriae Xen27 = format: cell-based, Shigella dysenteriae
Method: as §1
L- and D-HBcARD peptides were purchased from Yao-Hong Biotechnology Inc. (Taipei, Taiwan). Antimicrobial activity was determined as described. See, Chen et al., 2013. Briefly, bacteria were grown in MH broth (Difco) to mid-logarithmic phase at 37° C., and were diluted to 10^6 CFU (colony formation unit)/ml in phosphate buffer (10 mM sodium phosphate and 50 mM sodium chloride, pH 7.2). Peptides were serially diluted in the same buffer. […]

S. aureus = format: cell-based, Staphylococcus aureus
Method: as §1, §2, §3

[1] = Protease resistance assay (serum stability), SDS-PAGE and Green Angel staining; format: in vitro ADME; conditions: 5% bovine serum, 37° C.
Method: To compare the stability of the 37-mer L- and D-HBcARD peptides against serum protease degradation, we performed a protease resistance assay. After incubation with 5% bovine serum at 37° C. for 3 hours, more than 80% of L-HBcARD peptide was no longer detectable by staining with Green Angel on SDS-PAGE. In contrast, the signal intensity of the D-HBcARD peptide was not reduced under the same condition.
L- and D-HBcARD peptides (0.5 nmol) were mixed with MBC buffer in the presence or absence of 5% serum collected from bovine, mouse and human origins. After incubation at 37° C. for 3 hours, the amounts of peptides surviving the protease digestion were determined by SDS-PAGE electrophoresis and staining with Green Angel. The images were quantified using image J software and the intensities were normalized with the no serum control. To investigate the effect of serum on the antimicrobial activity of HBcARD peptides, L- and D-HBcARD peptides at their respective MBC concentrations were incubated with S. aureus ATCC19636 strain (10^6 CFU/ml) at 37° C. for three hours. Bacteria were plated on MH agar and the antimicrobial activity was determined by colony formation.

[2] = system: human red blood cells (hRBCs); test: Hemolytic activity; format: cell-based; conditions: up to 460 mg/L, 37° C., one hour
Method: In the hemolysis assay, human RBCs were incubated with serially-diluted doses (0 to 460 mg/L) of D-HBcARD, L-HBcARD, or melittin, at 37° C. for one hour.
The hemolytic activities of peptides were determined by hemolysis against human red blood cells (hRBCs). Human blood was obtained in EDTA-containing tube and was centrifuged at 450 g for 10 min. The pellet was washed three times with PBS buffer, and a solution of 10% hRBCs was prepared. hRBCs solution was mixed with serial dilutions of peptides in PBS buffer, and the reaction mixtures were incubated for 1 h at 37° C. After centrifugation at 450 g for 10 min, the percentage of hemolysis was determined by measuring the absorbance at the wavelength of 405 nm of the supernatant. Blank and 100% hemolysis were determined in PBS buffer and in the presence of 1% Triton X-100, respectively.

S. aureus ATCC 19636 = test: Immunogenicity: sepsis model in peptide-immunized mice; format: in vivo, ICR mice; conditions: immunized three times with 5 mg/kg peptide
Method: FIG. 4 is a set of graphs showing comparison of in vivo protection activities between L- and D-form HBcARD peptides in a mouse sepsis model infected with S. aureus. (A) Three week-old ICR mice were inoculated with S. aureus (4×10^6 CFU/mouse) and i.p. injected with PBS, L-HBcARD, or D-HBcARD at 2 hours post-inoculation. Each group contained ten mice. (B) and (C) Three week-old ICR mice were immunized with L- and D-HBcARD peptides (5 mg/kg), respectively, at day 0, 3 and 6. On day 14, the mice were inoculated with S. aureus (4×10^6 CFU/mouse) and i.p. injected with PBS, L-HBcARD or D-HBcARD (10 mg/kg) at 1 hour post-inoculation, respectively. Another group of mice were treated with PBS in parallel as a control. Each group of animals contained five mice. *P<0.05; ***P<0.0001; ns, no significance.
To investigate whether repeated treatments with the 37-mer HBcARD peptides may compromise the efficacy by inducing neutralization antibody in vivo, we immunized 3-week old mice three times with L- and D-HBcARD peptides, respectively, prior to bacterial infection. […]
To investigate the potential immunogenicity of HBcARD peptides, we determined the in vivo antimicrobial activity of HBcARD peptide in peptide-immunized mice. […] Mortality was monitored daily for 7 days following the bacterial inoculation.

P. aeruginosa = format: cell-based, Pseudomonas aeruginosa
Method: as §1, §2, §3

A. baumannii = format: cell-based, Acinetobacter baumannii
Method: as §1, §2, §3

[3] = system: colistin-resistant A. baumannii TCGH 46709; test: Mouse lung infection model, intra-tracheal inoculation; format: in vivo, BALB/c mice; conditions: 5 mg/kg/day ip.
Method: FIG. 6 is a graph showing in vivo protection efficacies of 150-177C and 150-177Q peptides in a BALB/c mouse lung infection model. Colistin-resistant A. baumannii was inoculated via intra-tracheal route.
BALB/c mice (n=8/group) were intra-tracheally inoculated with colistin-resistant A. baumannii TCGH 46709 (3.4×10^8 cfu/mouse). These lung-infected mice were ip. treated with colistin (5 mg/kg/day) or D-150-177C (5 and 10 mg/kg/day), respectively.

Row | Compound | Minimal bactericidal concentration (K. pneumoniae) | Minimal bactericidal concentration (E. coli) | Minimal bactericidal concentration (S. dysenteriae Xen27) | Minimal bactericidal concentration (S. aureus) | metabolised at 3 h ([1]; read-out: peptide no longer detectable by staining with Green Angel on SDS-PAGE) | hemolytic activity [2] | neutralization activity induced by prior immunizations (S. aureus ATCC 19636) | Minimal bactericidal concentration (P. aeruginosa) | MBC (A. baumannii) | Minimal bactericidal concentration (S. dysenteriae Xen27; S. dysenteriae Xen27) | MBC (S. aureus) | signal intensity of the peptide after serum incubation ([1]; 3 hours) | survival outcome [3]
1 | TVVRRRGRSPRRRTPSPRRRRSQSPRRRRSQSRESQC [L-HBcARD] | 9.2 µg/mL | 18.4 µg/mL | 18.4 µg/mL | 18.4 µg/mL | > 80% | no hemolytic activity | no neutralization activity |  |  |  |  |  | 
2 | CC(C)[C@H](NC(=O)[C@@H](NC(=O)[C@@H](N)[C@@H](C)O)C(C)C)C(=O)N[C@H](CCCNC(=N)N)C(=O)N[C@H](CCCNC(=N)N)C(=O)N[C@H](CCCNC(=N)N)C(=O)NCC(=O)N[C@H](CCCNC(=N)N)C(=O)N[C@@H](CO)C(=O)N1CCC[C@H]1C(=O)N[C@H](CCCNC(=N)N)C(=O)N[C@H](CCCNC(=N)N)C(=O)N[C@H](CCCNC(=N)N)C(=O)N[C@H](C(=O)N1CCC[C@H]1C(=O)N[C@@H](CO)C(=O)N1CCC[C@H]1C(=O)N[C@H](CCCNC(=N)N)C(=O)N[C@H](CCCNC(=N)N)C(=O)N[C@H](CCCNC(=N)N)C(=O)N[C@H](CCCNC(=N)N)C(=O)N[C@@H](CO)C(=O)N[C@@H](CCC(N)=O)C(=O)N[C@@H](CO)C(=O)N1CCC[C@H]1C(=O)N[C@H](CCCNC(=N)N)C(=O)N[C@H](CCCNC(=N)N)C(=O)N[C@H](CCCNC(=N)N)C(=O)N[C@H](CCCNC(=N)N)C(=O)N[C@@H](CO)C(=O)N[C@@H](CCC(N)=O)C(=O)N[C@@H](CO)C(=O)N[C@H](CCCNC(=N)N)C(=O)N[C@@H](CCC(=O)O)C(=O)N[C@@H](CO)C(=O)N[C@@H](CCC(N)=O)C(=O)N[C@@H](CS)C(=O)O)[C@@H](C)O [D-HBcARD, TVVrrrGrSPrrrTPSPrrrrSQSPrrrrSQSrESQC] (H-TVV[dR][dR][dR]G[dR]SP[dR][dR][dR]TPSP[dR][dR][dR][dR]SQSP[dR][dR][dR][dR]SQS[dR]ESQC-OH; N-terminus and C-terminus assumed) |  | 73.6 µg/mL (≈ 16 µM) |  |  |  | no hemolytic activity | no neutralization activity | 4.6 µg/mL (≈ 1 µM) | 2.3 to 4.6 µg/mL | 73.6 µg/mL (≈ 16 µM) | 4.6 to 9.2 µg/mL | not reduced | 
3 | colistin |  |  |  |  |  |  |  |  |  |  |  |  | died at 60 hours post-inoculation
